Columns and labels:
[1] = target: T1, ALK2R206H (mutant ALK2, N-terminally tagged with GST) (Homo sapiens, UniProt Q04771, R206H); assay: ALK binding assay (LANTHASCREEN TR-FRET competitive binding, displacement of Kinase Tracer 178); conditions: read-out: Binding Assay (IC50 class)
T1 construct: purchased Carna Bioscience or ThermoFisher 09-148 or PV6232
T1 sequence (Q04771 21-509 R206H): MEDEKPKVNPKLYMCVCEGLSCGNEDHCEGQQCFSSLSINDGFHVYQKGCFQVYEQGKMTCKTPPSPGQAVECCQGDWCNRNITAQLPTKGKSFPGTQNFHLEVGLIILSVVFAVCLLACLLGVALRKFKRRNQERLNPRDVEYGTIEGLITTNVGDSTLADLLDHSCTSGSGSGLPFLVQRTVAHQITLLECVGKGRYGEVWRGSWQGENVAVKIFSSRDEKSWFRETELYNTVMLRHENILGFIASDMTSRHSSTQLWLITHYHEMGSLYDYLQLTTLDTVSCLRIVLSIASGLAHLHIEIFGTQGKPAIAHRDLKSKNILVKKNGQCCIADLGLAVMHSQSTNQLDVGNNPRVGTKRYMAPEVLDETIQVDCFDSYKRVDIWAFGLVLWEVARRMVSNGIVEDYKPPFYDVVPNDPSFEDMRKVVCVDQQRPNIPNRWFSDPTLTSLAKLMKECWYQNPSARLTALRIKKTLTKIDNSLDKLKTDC
Protocol: Example 10 ALK Binding Assays
Binding assays were conducted using the LANTHASCREEN® technology (ThermoFisher Scientific). LANTHASCREEN® is a competitive binding, displacement assay where the assumed steady state occupancy of the binding site is measured using a time-resolved, fluorescence energy transfer (TR-FRET) readout between a fluorescent tracer and Europium (Eu)-tagged antibody specific for the kinase or expression tag (e.g., GST) of interest. Displacement of the tracer by a compound of the disclosure reduces, and is directly proportional to, the TR-FRET between the tracer and the antibody. Tracer was used at a concentration equal to or near to its Kd for the kinase. The Eu-tagged antibody was typically used in excess to ensure sampling of all competent protein capable of binding the tracer.
For these assays, a mutant ALK2 was used that was N-terminally tagged with GST (ALK2R206H Carna Bioscience (09-148) or ALK2R206H ThermoFisher (PV6232)); a Eu-tagged anti-GST antibody (ThermoFisher) and Kinase Tracer 178 (ThermoFisher).
In all cases, the kinase (2-5 nM) was mixed with Eu-tagged antibody (4-10 nM) mix and tracer (50 nM) were incubated with test compound titrations prepared in 100% DMSO (1% DMSO final) for 30 minutes at room temperature. All reagents and compounds were dissolved in Kinase Buffer A (ThermoFisher) to achieve the final concentration. The plates were read on a PerkinElmer EnVision® multilabel plate reader or a BioTek Synergy Neo plate reader, and the assay signal was represented as a ratio of the TR-FRET emission (λex 330 nm, λ^em […] and λ^em 665 nm). This readout was normalized to 0% and 100% inhibited control wells, plotted against inhibitor concentration, and fitted to a 4-parameter log dose response curve.
The results of this assay are shown in Table 3 in the column labelled “Binding Assay” wherein “A” represents an IC50 of less than or equal to 10 nM; “B” represents an IC50 of greater than 10 nM and less than or equal to 50 nM; and “C” represents an IC50 of greater than 50 nM. Blank values in the table indicate that the particular compound was not tested in this assay.

human ALK2 R206H = target: T2, human ALK2 R206H (Homo sapiens, UniProt Q04771, R206H); assay: Cell-based ALK2-R206H cell activity assay (Smad1-Ser463/Ser465 phosphorylation by AlphaLISA in HEK293-ALK2-R206H cells); conditions: phospho-Smad1 AlphaLISA, read-out: Cell Line (Cell Assay, IC50 class)
T2 construct: expressed in transfected cells; host or cells: HEK293 (ATCC CRL1573), lentivirus transduction, blasticidin selection
T2 sequence (Q04771 21-509 R206H): T1 sequence (Q04771 21-509 R206H)
Protocol: Example 11. Cell-Based ALK2-R206H Cell Activity Assay
A HEK293 (ATCC, Cat No. CRL1573) based stable cell line expressing human ALK2 R206H cDNA (synthesized by GeneScript, Piscataway, N.J.) and a FLAG tag at the C-terminus was generated by lentivirus transduction and subsequent blasticidin (Life Technologies, Cat No. A1113902) selection at 10 μg/ml for >2 wks. This cell line was named HEK293-ALK2-R206H.
B. Measurement of Smad1-Ser463/Ser465 Phosphorylation by AlphaLISA
HEK293-ALK2-R206H cells were grown, harvested, and then resuspended in serum-free, phenol red-free DMEM high glucose media (Life Technologies, Cat No. 31053). The media also contained 50 units/ml penicillin and 50 μg/ml streptomycin (Life Technologies, Cat. No. 15070-063). HEK293-ALK2-R206H cells were then plated in white opaque 384-wells microplates (2×10^4/well) (OptiPlate-384, PerkinElmer, Waltham, Mass., Cat No. 6007299) overnight (>16h) at 37° C. 5% CO2 for use in the assay.
Test compounds were first diluted to 4 mM or 0.4 mM and then serially diluted 3-fold into 10 different concentrations using DMSO. Each concentration of compound was further diluted 40-fold with phenol red-free DMEM (Life Technologies, Cat No. 31053). 2 μl of the diluted compounds were then dispensed into the HEK293-ALK2-R206H cell-containing wells of the microplates in duplicates. In this way, each compound was tested in 10 doses (3-fold serial dilution with the top concentration being 10 μM or 1 μM). Liquid handling was achieved using a Bravo Automated Liquid Handling Platform (Agilent Technologies). DMSO without compound was used as a negative control. The positive control was 1 μM LDN193189, a known bone morphogenetic protein (BMP inhibitor).
After 2-3 hours of incubation with test compound or control, the cells were lysed and signal was developed using ALPHASCREEN® SUREFIRE® SMAD1 (p-Ser463/465) cellular kinase assay kit (PerkinElmer, Cat No. TGRSM1S10K) following the manufacturer's recommended protocol. The microplates were read using Perkin Elmer ENVISION® plate reader (emission […]). The signal reflected the level of phospho-Ser/463/465-Smad1 in the lysate. The raw data were plotted using the DMSO negative and LDN193189 positive controls as the 0% and 100% inhibition, respectively. The 10-point dose response curve was used to calculate the IC50 values.
The results of this assay are shown in Table 3 in the column labeled “Cell Assay” wherein “A” represents an IC50 of less than or equal to 100 nM; “B” an IC50 of greater than 100 nM and less than or equal to 500 nM; “C” an IC50 of greater than 500 nM. Blank values in the table indicate that the particular compound was not tested in this assay.

SMILES | IC50 [1] [nM] | IC50 (human ALK2 R206H) [nM]
O=C(OC1COC1)N1CCN(c2ccnc3[nH]c(-c4cn(C5COC5)cn4)cc23)CC1 [Compound 301] | ≤ 10 | 100 to 500
CCOC(=O)N1CCN(c2ccnc3[nH]c(-c4cnn(C)c4)c(CO)c23)CC1 [Compound 111] | ≤ 10 | 100 to 500
Cc1nc(-c2cc3c(N4CCN(C(=O)OCC(F)F)CC4)ccnc3[nH]2)cs1 [Compound 212] | ≤ 10 | ≤ 100
O=C(O[C@H]1C[C@H](F)C1)N1CCN(c2ccnc3[nH]c(-c4ccc(C5(O)CCOCC5)cn4)cc23)CC1 [Compound 462] | ≤ 10 | ≤ 100
CCCOC(=O)N1CCN(c2ccnc3[nH]c(-c4cnn(C)c4)cc23)CC1 [Compound 40] | ≤ 10 | 100 to 500
Cn1cnc(-c2cc3c(N4CCN(C(=O)OC5CC5)CC4)ccnc3[nH]2)c1 [Compound 29] | ≤ 10 | ≤ 100
CCS(=O)(=O)c1ccc(-c2cc3c(N4CCN(C(=O)OC5COC5)CC4)ccnc3[nH]2)cc1 [Compound 436] | ≤ 10 | ≤ 100
CCOC(=O)N1CCN(c2ccnc3[nH]c(-c4cn(C)nc4F)cc23)CC1 [Compound 51] | ≤ 10 | 100 to 500
CCN1CCN(c2ccc(-c3cc4c(N5CCN(C(=O)C6CC6)CC5)ccnc4[nH]3)c(Cl)c2)CC1 [Compound 456] | ≤ 10 | ≤ 100
Cn1cc(-c2[nH]c3nccc(N4CCN(C(=O)[C@H]5CC[C@H](C#N)CC5)CC4)c3c2Cl)cn1 [Compound 397] | ≤ 10 | ≤ 100
Cn1cnc(-c2[nH]c3nccc(N4CCN(C(=O)OC5CC5)CC4)c3c2C#N)c1 [Compound 130] | ≤ 10 | ≤ 100
CCOC(=O)N1CCN(c2ccnc3[nH]c(-c4ccc(C(C)(C)C#N)cn4)cc23)CC1 [Compound 282] | ≤ 10 | ≤ 100
Cn1cc(-c2cc3c(N4CCN(C(=O)OCC5COC5)CC4)ccnc3[nH]2)cn1 [Compound 153] | ≤ 10 | 100 to 500
CN(C)CCOc1ccc(-c2cc3c(N4CCN(C(=O)C5CC5)CC4)ccnc3[nH]2)cc1 [Compound 343] | ≤ 10 | ≤ 100
CC(=O)N1CCc2nc(-c3cc4c(N5CCN(C(=O)OC6COC6)CC5)ccnc4[nH]3)sc2C1 [Compound 447] | ≤ 10 | ≤ 100
C[S+]([O-])c1ccc(-c2cc3c(N4CCN(C(=O)C5CC5)CC4)ccnc3[nH]2)cc1 (stereo not drawn) [Compound 225] | ≤ 10 | 100 to 500
NC1(c2ccc(-c3cc4c(N5CCN(C(=O)C6CC6)CC5)ccnc4[nH]3)cc2)CC1 [Compound 183] | ≤ 10 | ≤ 100
Cc1nc(-c2cc3c(N4CCN(C(=O)OC5CCC5)CC4)ccnc3[nH]2)sc1C [Compound 242] | ≤ 10 | ≤ 100

SMILES | IC50 [1] [nM] | IC50 (human ALK2 R206H) [nM]
CCOC(=O)N1CCN(c2ccnc3[nH]c(-c4nc(C)c(C)s4)cc23)CC1 [Compound 114] | ≤ 10 | ≤ 100
N#Cc1c(-c2nc3c(s2)COCC3)[nH]c2nccc(N3CCN(C(=O)OC4CC4)CC3)c12 [Compound 395] | ≤ 10 | ≤ 100
Cn1cc(-c2[nH]c3nccc(N4CCN(C(=O)[C@H]5C[C@@H]5C#N)CC4)c3c2Cl)cn1 [Compound 228] | ≤ 10 | ≤ 100
Cc1nc(-c2[nH]c3nccc(N4CCN(C(=O)OCC(F)F)CC4)c3c2C#N)cs1 [Compound 337] | ≤ 10 | ≤ 100
CN(C)c1nc(-c2cc3c(N4CCN(C(=O)OC5COC5)CC4)ccnc3[nH]2)cn1C [Compound 310] | ≤ 10 | ≤ 100
O=C(C1CC1)N1CCN(c2ccnc3[nH]c(-c4cnn(C5CCC5)c4)cc23)CC1 [Compound 128] | ≤ 10 | 100 to 500
CCN1CCN(c2ccc(-c3cc4c(N5CCN(C(=O)C6CC6)CC5)ccnc4[nH]3)c(F)c2)CC1 [Compound 444] | ≤ 10 | ≤ 100
CC(C)N1CCC(c2ccc(-c3cc4c(N5CCN(C(=O)OC6COC6)CC5)ccnc4[nH]3)nc2)CC1 [Compound 469] | ≤ 10 | ≤ 100
O=C(OC1COC1)N1CCN(c2ccnc3[nH]c(-c4ccc(C5(O)CCCC5)cc4)cc23)CC1 [Compound 427] | ≤ 10 | ≤ 100
Cc1nc(-c2cc3c(N4CCN(C(=O)O[C@H]5C[C@H](F)C5)CC4)ccnc3[nH]2)cn1C [Compound 244] | ≤ 10 | ≤ 100
CC(C)(O)c1cnc(-c2cc3c(N4CCN(C(=O)OC5COC5)CC4)ccnc3[nH]2)s1 [Compound 377] | ≤ 10 | ≤ 100
CC(C)OC(=O)N1CCN(c2ccnc3[nH]c(-c4cnn(C)c4)c(Cl)c23)CC1 [Compound 186] | ≤ 10 | 100 to 500
Cn1cnc(-c2[nH]c3nccc(N4CCN(C(=O)O[C@H]5CCC5(F)F)CC4)c3c2C#N)c1 [Compound 369] | ≤ 10 | ≤ 100
CCOC(=O)N1CCN(c2ccnc3[nH]c(-c4ccc(C5(OC)CCN(C(C)CF)CC5)cn4)cc23)CC1 (stereo not drawn) [Compound 476] | ≤ 10 | ≤ 100
Cc1ncc(-c2cc3c(N4CCN(C(=O)OC5COC5)CC4)ccnc3[nH]2)o1 [Compound 103] | ≤ 10 | 100 to 500
Cc1nc(-c2cc3c(N4CCN(C(=O)O[C@H]5CC(F)(F)C5(F)F)CC4)ccnc3[nH]2)cn1C [Compound 432] | ≤ 10 | ≤ 100
CCOC(=O)N1CCN(c2ccnc3[nH]c(-c4ccc([C@@]5(O)CCOC5)cc4)cc23)CC1 [Compound 355] | ≤ 10 | ≤ 100
Cn1cc(-c2cc3c(N4CCN(C(=O)O[C@@H]5CCC5(F)F)CC4)ccnc3[nH]2)cn1 [Compound 263] | ≤ 10 | ≤ 100

— patent US11236086B2, “Substituted pyrrolopyridines as inhibitors of activin receptor-like kinase” (BLUEPRINT MEDICINES CORPORATION, priority 2017, dated 2022)
